Each cell line was assayed with CC(C)N(CCCNC(=O)Nc1ccc(C(C)(C)C)cc1)C[C@H]1O[C@@H](n2ccc3c(N)ncnc32)[C@H](O)[C@@H]1O + CC(C)C[C@H](NC(=O)[C@H](Cc1ccccc1)NC(=O)c1cnccn1)B(O)O [Bortezomib] (partner 0.002 µM) (assay: relative viability (nuclei count vs DMSO), 5 days (fraction); higher = more cells survive). Settings: first compound 0.08 µM.
In short: (§1)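 Relative viability was taken as the ratio of nuclei in treated wells to nuclei in vehicle wells. Lung cancer cell lines in 1536-well plates received compounds by pin tool one day after seeding, either one drug alone or a fixed anchor-drug dose plus five library-drug doses (not always all listed) in √10 steps. Nuclei were counted on 4× images after 5 days of treatment, and values are medians of duplicate plates.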

Row | Cell Line | relative viability
1 | COR-L23 | 0.87
2 | COR-L 105 | 0.719
3 | IA-LM | 0.81
4 | LOU-NH91 | 0.442
5 | ChaGo-K-1 | 1.08
6 | HCC-44 | 0.902
7 | NCI-H1299 | 1.03
8 | NCI-H1792 | 0.932
9 | NCI-H1563 | 0.844
10 | ABC-1 | 0.28
11 | NCI-H727 | 0.829

Same assay, conditions: first compound 0.253 µM

Row | Cell Line | relative viability
12 | PC-14 | 0.852
13 | NCI-H1650 | 0.205
14 | EBC-1 | 0.549
15 | NCI-H1703 | 0.316
16 | NCI-H2009 | 0.817
17 | NCI-H1993 | 0.912
18 | NCI-H520 | 0.179
19 | PC-3 [JPC-3] | 0.927
20 | LCLC-103H | 1
21 | EMC-BAC-2 | 1.12
22 | NCI-H2087 | 0.841
23 | Calu-6 | 0.999
24 | HCC-366 | 0.999
25 | NCI-H1666 | 0.775
26 | NCI-H650 | 0.598
27 | NCI-H2126 | 1.12
28 | H3255 | 0.618
29 | COR-L23 | 0.968
30 | COR-L 105 | 0.537
31 | IA-LM | 0.693
32 | LOU-NH91 | 0.449
33 | ChaGo-K-1 | 0.886
34 | HCC-44 | 1.01
35 | NCI-H1299 | 0.987
36 | NCI-H1792 | 0.839
37 | NCI-H1563 | 0.811
38 | ABC-1 | 0.249
39 | NCI-H727 | 0.696

Same assay, conditions: first compound 0.8 µM

Row | Cell Line | relative viability
40 | PC-14 | 0.859
41 | EBC-1 | 0.486
42 | NCI-H1703 | 0.273
43 | NCI-H2009 | 0.883
44 | NCI-H1993 | 0.915
45 | NCI-H520 | 0.155
46 | PC-3 [JPC-3] | 0.317
47 | LCLC-103H | 0.686
48 | NCI-H647 | 0.2
49 | NCI-H2228 | 0.377
50 | EMC-BAC-2 | 0.948
51 | NCI-H2087 | 0.25
52 | Calu-6 | 1.06
53 | HCC-366 | 0.948
54 | NCI-H1666 | 0.613
55 | NCI-H650 | 0.773
56 | NCI-H2126 | 1.14
57 | H3255 | 0.406
58 | COR-L23 | 0.464
59 | COR-L 105 | 0.719
60 | IA-LM | 0.752
61 | ChaGo-K-1 | 0.87
62 | HCC-44 | 0.774
63 | NCI-H1299 | 0.966
64 | NCI-H1792 | 0.979
65 | NCI-H1563 | 0.626
66 | NCI-H727 | 0.583

Same assay, conditions: first compound 2.53 µM

Row | Cell Line | relative viability
67 | PC-14 | 1
68 | NCI-H1650 | 0.205
69 | EBC-1 | 0.466
70 | NCI-H1703 | 0.381
71 | NCI-H2009 | 1.08
72 | NCI-H1993 | 1.13
73 | NCI-H520 | 0.647
74 | PC-3 [JPC-3] | 0.749
75 | LCLC-103H | 1.04
76 | NCI-H647 | 0.821
77 | NCI-H2228 | 0.825
78 | EMC-BAC-2 | 0.994
79 | NCI-H2087 | 0.99
80 | Calu-6 | 1
81 | HCC-366 | 1.05
82 | NCI-H1666 | 0.83
83 | NCI-H650 | 0.682
84 | NCI-H2126 | 1.08
85 | H3255 | 0.638
86 | COR-L23 | 1.1
87 | COR-L 105 | 0.744
88 | IA-LM | 0.689
89 | LOU-NH91 | 0.421
90 | ChaGo-K-1 | 1.01
91 | HCC-44 | 0.991
92 | NCI-H1299 | 1.04
93 | NCI-H1792 | 0.945
94 | NCI-H1563 | 0.873
95 | ABC-1 | 0.344
96 | NCI-H727 | 0.935

Same assay, conditions: first compound 8 µM

Row | Cell Line | relative viability
97 | PC-14 | 0.743
98 | NCI-H1650 | 0.201
99 | EBC-1 | 0.473
100 | NCI-H1703 | 0.307
101 | NCI-H2009 | 0.955
102 | NCI-H1993 | 1.16
103 | NCI-H520 | 0.524
104 | PC-3 [JPC-3] | 0.815
105 | LCLC-103H | 1.02
106 | NCI-H647 | 0.809
107 | NCI-H2228 | 1.19
108 | EMC-BAC-2 | 0.904
109 | NCI-H2087 | 0.857
110 | Calu-6 | 1.01
111 | HCC-366 | 1.04
112 | NCI-H1666 | 0.697
113 | NCI-H650 | 0.796
114 | NCI-H2126 | 1.05
115 | H3255 | 0.747
116 | COR-L23 | 0.929
117 | COR-L 105 | 0.75
118 | IA-LM | 0.712
119 | LOU-NH91 | 0.608
120 | ChaGo-K-1 | 1.08
121 | HCC-44 | 0.842
122 | NCI-H1299 | 1.04
123 | NCI-H1792 | 1.01
124 | NCI-H1563 | 0.902
125 | ABC-1 | 0.325
126 | NCI-H727 | 0.734

Each cell line was assayed with CC(C)N(CCCNC(=O)Nc1ccc(C(C)(C)C)cc1)C[C@H]1O[C@@H](n2ccc3c(N)ncnc32)[C@H](O)[C@@H]1O + Cc1nc(Nc2ncc(C(=O)Nc3c(C)cccc3Cl)s2)cc(N2CCN(CCO)CC2)n1 [Dasatinib] (partner 0.075 µM) in the same assay as above. Settings: first compound 0.08 µM.
In short: as §1

Row | Cell Line | relative viability
127 | NCI-H2342 | 0.336
128 | NCI-H1623 | 0.562
129 | PC-14 | 0.223
130 | NCI-H1650 | 0.347
131 | NCI-H2009 | 0.261
132 | NCI-H1993 | 0.476
133 | NCI-H520 | 0.186
134 | PC-3 [JPC-3] | 0.921
135 | LCLC-103H | 0.435
136 | NCI-H647 | 0.183
137 | NCI-H2228 | 0.54
138 | EMC-BAC-2 | 0.349
139 | NCI-H2087 | 0.876
140 | HCC-366 | 0.608
141 | NCI-H1666 | 0.874
142 | NCI-H650 | 0.416
143 | LK-2 | 0.447
144 | NCI-H2126 | 0.616
145 | SK-MES-1 | 0.348
146 | H3255 | 0.507
147 | COR-L23 | 0.499
148 | COR-L 105 | 0.298
149 | LOU-NH91 | 0.572
150 | ChaGo-K-1 | 0.532
151 | NCI-H2170 | 0.429
152 | NCI-H522 | 0.888
153 | SW 900 | 0.74
154 | NCI-H1395 | 0.471
